Test results taken from the supplement of paper PMC13207355.

How the values were obtained:
Details in all cases: exposure time: 72 h
[1] = system: E34 (patient-derived glioblastoma stem cells of proneural subtype); experiment: surviving fraction (nuclei count normalised to DMSO); higher = more cells surviving (less toxic)
[2] = system: E31 (patient-derived glioblastoma stem cells of proneural subtype); experiment: as above
[3] = system: FT3469 (normal neural stem cell line); experiment: as above
[4] = system: E28 (patient-derived glioblastoma stem cells of classical subtype); experiment: as above
[5] = system: E13 (patient-derived glioblastoma stem cells of classical subtype); experiment: as above
[6] = system: E21 (patient-derived glioblastoma stem cells of mesenchymal subtype); experiment: as above
[7] = system: E57 (patient-derived glioblastoma stem cells of mesenchymal subtype); experiment: as above
[8] = system: E34; experiment: phenotypic distance (Euclidean, principal components) from DMSO controls (arbitrary units); higher = stronger morphological change
[9] = system: E31; experiment: as above
[10] = system: FT3469; experiment: as above
[11] = system: E28; experiment: as above
[12] = system: E13; experiment: as above
[13] = system: E21; experiment: as above
[14] = system: E57; experiment: as above
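Wherever phenotypic distance (Euclidean, principal components) from DMSO controls is given: cell Painting imaging in 384-well plates, CellProfiler features reduced to at least 20 principal components, Euclidean distance versus same-plate DMSO vehicle wells (0.1% v/v), median over six images per well.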
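Wherever surviving fraction (nuclei count normalised to DMSO) is given: nuclei counted by high-content imaging of Hoechst-stained cells in laminin-coated 384-well plates, relative to 0.1% DMSO vehicle wells, with staurosporine as cell-death control.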

COC(=O)Nc1nc2cc(C(=O)c3cccs3)ccc2[nH]1 [Nocodazole]
Details | phenotypic distance | surviving fraction
[1], 4.11523 nM | – | 0.543
[1], 12.34567901 nM | – | 0.541
[1], 37.037 nM | – | 0.488
[1], 111.1111111 nM | – | 0.469
[1], 333.333 nM | – | 0.394
[1], 1000 nM | – | 0.316
[1], 3000 nM | – | 0.433
[2], 4.11523 nM | – | 0.262
[2], 12.34567901 nM | – | 0.174
[2], 37.037 nM | – | 0.135
[2], 111.1111111 nM | – | 0.0743
[2], 333.333 nM | – | 0.0743
[2], 1000 nM | – | 0.058
[2], 3000 nM | – | 0.0327
[3], 4.11523 nM | – | 0.562
[3], 12.34567901 nM | – | 0.573
[3], 37.037 nM | – | 0.619
[3], 111.1111111 nM | – | 0.474
[3], 333.333 nM | – | 0.582
[3], 1000 nM | – | 0.382
[3], 3000 nM | – | 0.353
[4], 4.11523 nM | – | 0.698
[4], 12.34567901 nM | – | 0.609
[4], 37.037 nM | – | 0.531
[4], 111.1111111 nM | – | 0.353
[4], 333.333 nM | – | 0.428
[4], 1000 nM | – | 0.267
[4], 3000 nM | – | 0.297
[5], 4.11523 nM | – | 0.286
[5], 12.34567901 nM | – | 0.309
[5], 37.037 nM | – | 0.238
[5], 111.1111111 nM | – | 0.193
[5], 333.333 nM | – | 0.228
[5], 1000 nM | – | 0.186
[5], 3000 nM | – | 0.178
[6], 4.11523 nM | – | 0.506
[6], 12.34567901 nM | – | 0.54
[6], 37.037 nM | – | 0.116
[6], 111.1111111 nM | – | 0.101
[6], 333.333 nM | – | 0.118
[6], 1000 nM | – | 0.0883
[6], 3000 nM | – | 0.083
[7], 4.11523 nM | – | 0.452
[7], 12.34567901 nM | – | 0.418
[7], 37.037 nM | – | 0.143
[7], 111.1111111 nM | – | 0.067
[7], 333.333 nM | – | 0.0805
[7], 1000 nM | – | 0.0687
[7], 3000 nM | – | 0.104
[8], 4.11523 nM | 3.24 | –
[8], 12.34567901 nM | 3.27 | –
[8], 37.037 nM | 4.43 | –
[8], 111.1111111 nM | 4.49 | –
[8], 333.333 nM | 5.97 | –
[8], 1000 nM | 8.12 | –
[8], 3000 nM | 7.56 | –
[9], 4.11523 nM | 4.08 | –
[9], 12.34567901 nM | 3.99 | –
[9], 37.037 nM | 5.49 | –
[9], 111.1111111 nM | 6.17 | –
[9], 333.333 nM | 5.43 | –
[9], 1000 nM | 11.1 | –
[9], 3000 nM | 12 | –
[10], 4.11523 nM | 3.38 | –
[10], 12.34567901 nM | 3.38 | –
[10], 37.037 nM | 3.11 | –
[10], 111.1111111 nM | 2.9 | –
[10], 333.333 nM | 3.84 | –
[10], 1000 nM | 5.03 | –
[10], 3000 nM | 4.79 | –
[11], 4.11523 nM | 2.22 | –
[11], 12.34567901 nM | 2.63 | –
[11], 37.037 nM | 2.97 | –
[11], 111.1111111 nM | 3.74 | –
[11], 333.333 nM | 3.59 | –
[11], 1000 nM | 4.6 | –
[11], 3000 nM | 5.85 | –
[12], 4.11523 nM | 6.13 | –
[12], 12.34567901 nM | 4.73 | –
[12], 37.037 nM | 5.56 | –
[12], 111.1111111 nM | 6.89 | –
[12], 333.333 nM | 6.42 | –
[12], 1000 nM | 6.56 | –
[12], 3000 nM | 9.87 | –
[13], 4.11523 nM | 4.87 | –
[13], 12.34567901 nM | 4.76 | –
[13], 37.037 nM | 8.31 | –
[13], 111.1111111 nM | 9.95 | –
[13], 333.333 nM | 9.8 | –
[13], 1000 nM | 8.46 | –
[13], 3000 nM | 9.75 | –
[14], 4.11523 nM | 5.26 | –
[14], 12.34567901 nM | 5.57 | –
[14], 37.037 nM | 7.85 | –
[14], 111.1111111 nM | 6.23 | –
[14], 333.333 nM | 6.48 | –
[14], 1000 nM | 6.95 | –
[14], 3000 nM | 6.12 | –
